Measured values published in EP0548931A1, “Material for controlling pests” (SUMITOMO CHEMICAL COMPANY, LIMITED, priority 1991, dated 1993).

Assays:
sweetpotato whitefly [1] = assay: Test Example 4: yellow cloth with cotton seed oil solution in net cage, hatching inhibitory effect on eggs; type: in vivo, Bemisia tabaci; conditions: after 48 hours, kidney bean
Description: Materials for controlling pests containing pyriproxyfen in amounts of 5.3 mg/cm², 2.7 mg/cm² and 0.5 mg/cm², respectively, were prepared by dissolving the corresponding amounts of pyriproxyfen in a cotton seed oil and coating every solution thus obtained onto a yellow cloth of 15 cm x 15 cm in size to allow the cloth to absorb the solution. Every cloth was set on one wall surface of a nylon net cage (30 cm x 30 cm x 30 cm). Kidney bean planted in a pot was placed at the center of the cage, and sweetpotato whitefly adults were released in the cage. After 48 hours, the hatching inhibitory effect on eggs from the adults was examined.

sweetpotato whiteflies [2] = assay: Test Example 11: yellow polyethylene sheet (Production Example 9), pest-controlling effect, count of adults; type: in vivo, Bemisia tabaci
Description: Ninety-eight parts by weight of a polyethylene resin (Sumikathene®; a registered trade mark of Sumitomo Chemical Co., Ltd.), 1 part by weight of pyriproxyfen, a juvenile hormone-like compound, and 1 part by weight of a polyethylene colored master batch for yellow coloration (SPEM 305 produced by Sumika Color Co., pigment content: 12 wt.%) are kneaded with a pressure kneader and then pelletized. The resulting pellet is extruded through an extruder equipped with a T-dies at 160° to 180°C to obtain a sheet-form material for controlling pests of 1 mm in thickness. A sheet-like material for controlling pests prepared according to Production Example 9 was formed into a size of 15 cm x 15 cm. It was set at the same height as that of a container (80 cm x 112 cm x 45 cm) in which tomato having greenhouse whiteflies parasitized thereon had been planted. On the other hand, a yellow film containing no insect growth regulator was set as a control in the same manner as in setting the above material for controlling pests. On the predetermined day, the number of greenhouse whitefly adults parasitized on the tomato was counted. In the same manner as in Test Example 10, the pest-controlling effect on sweetpotato whiteflies was examined.

greenhouse whiteflies = assay: Test Example 1: yellow cloth material (Production Example 2) set beside tomato, count of adults; type: in vivo, Trialeurodes vaporariorum
Description: (§1) 0.4 Part of the insect growth regulator is dissolved in 40 parts of acetone and further 0.8 part of rape seed oil is added thereto. Thirty-one milliliters of the resulting solution is absorbed in a yellow cloth of 21 cm x 92 cm in size. Acetone is then vaporized to obtain a material for controlling pests containing 0.16 mg/cm² of the active ingredient. A material for controlling pests with pyriproxyfen as insect growth regulator was prepared according to Production Example 2. It was set at the same height as that of a container (80 cm x 112 cm x 45 cm) in which tomato having greenhouse whiteflies parasitized thereon had been planted. On the other hand, a yellow cloth containing no insect growth regulator was set as a control at a distance of about 8 m. On the predetermined day, the number of greenhouse whitefly adults parasitized on the tomato was counted.

Thrips palmi = assay: Test Example 12: blue polyethylene sheet (Production Example 10) in glass vessel with cucumber seedlings, count of adults; type: in vivo; conditions: 28° ±1°C
Text: The same procedure as in Production Example 9 is repeated except that a colored master batch for blue coloration (SPEM 510 produced by Sumika Color Co.; pigment content: 12 wt.%) replaces the colored master batch for yellow coloration. Thus, a sheet-form material for controlling pests is obtained.
Soil was placed on the bottom of a glass vessel of 70 cm x 35 cm x 35 cm in size. Three cucumber seedings, on which Thrips palmi had been parasitized, were planted at the central part of the glass vessel. After three days, the material for controlling pests prepared according to Production Example 10 was formed into a size of 15 cm x 15 cm and set at a height of 5 cm above the ground. On the other hand, the same test was carried out by setting a blue film containing no insect growth regulator, a control, in the same manner as in setting the above material for controlling pests.
On the predetermined day, the number of Thrips palmi adults parasitized on the cucumbers was counted. The tests were carried out in a room kept at 28° ±1°C.

sweetpotato whitefly [3] = assay: Test Example 9: yellow Kent paper (Production Example 8) in net cage, hatching inhibition; type: in vivo, Bemisia tabaci; conditions: yellow Kent paper 15 cm x 15 cm, 1 g/m², Solvesso 200; eggs laid on kidney bean
Description: Ten parts of the insect growth regulator is dissolved in 90 parts of a mineral oil. 0.225 Gram of the resulting solution is absorbed in a square yellow Kent paper having a side of 15 cm to obtain a material for controlling pests containing 1 g/m² of the active ingredient. A material for controlling pests containing pyriproxyfen (insect growth regulator) and Solvesso 200 (mineral oil) prepared according to Production Example 8 was formed into a size of 15 cm x 15 cm. It was set on one wall surface of a nylon net cage of 30 cm x 30 cm x 30 cm in size. About 100 adults of sweetpotato whitefly were released in the cage together with kidney bean on which the adults had been parasitized. One day after release of the adults, a potted kidney bean having no adults parasitized thereon was set in the cage for oviposition. Among the eggs laid on the potted kidney bean until the next day, the number of untached eggs was counted.

sweetpotato whiteflies [4] = assay: Test Example 2: yellow cloth material (Production Example 2), pest-controlling effect, count of adults; type: in vivo, Bemisia tabaci; conditions: 0.16 mg/cm²
Description: as §1, with “counted. Table 1 In the same manner as in Test Example 1, the pest-controlling effect on sweetpotato whiteflies was examined.” for “counted.”

## CC(COc1ccc(Oc2ccccc2)cc1)Oc1ccccn1 (stereo not drawn) [pyriproxyfen, 4-phenoxyphenyl 2-(2-pyridyloxy)propyl ether]
Sweetpotato whitefly [1]; Pyriproxyfen 0.5 mg/cm² on yellow cloth
  Hatching inhibitory rate (%): 83.7%
Sweetpotato whitefly [1]; Pyriproxyfen 2.7 mg/cm² on yellow cloth
  Hatching inhibitory rate (%): 98.2%
Sweetpotato whitefly [1]; Pyriproxyfen 5.3 mg/cm² on yellow cloth
  Hatching inhibitory rate (%): 94.6%
Sweetpotato whiteflies [2]; 0 days elapsed after setting
  number of sweetpotato whitefly adults (pest-controlling effect): 70
Sweetpotato whiteflies [2]; 7 days elapsed after setting
  number of sweetpotato whitefly adults (pest-controlling effect): 30
Sweetpotato whiteflies [2]; 14 days elapsed after setting
  number of sweetpotato whitefly adults (pest-controlling effect): 20
Sweetpotato whiteflies [2]; 18 days elapsed after setting
  number of sweetpotato whitefly adults (pest-controlling effect): 18
Sweetpotato whiteflies [2]; 29 days elapsed after setting
  number of sweetpotato whitefly adults (pest-controlling effect): 8
Sweetpotato whiteflies [2]; 35 days elapsed after setting
  number of sweetpotato whitefly adults (pest-controlling effect): 5
Greenhouse whiteflies; 0 days elapsed after setting, 0.16 mg/cm² active ingredient, rape seed oil
  number of greenhouse whitefly adults parasitized on the tomato (mean value per cup): 102
Greenhouse whiteflies; 7 days elapsed after setting, 0.16 mg/cm²
  number of greenhouse whitefly adults parasitized on the tomato (mean value per cup): 82
Greenhouse whiteflies; 14 days elapsed after setting, 0.16 mg/cm²
  number of greenhouse whitefly adults parasitized on the tomato (mean value per cup): 82
Greenhouse whiteflies; 18 days elapsed after setting, 0.16 mg/cm²
  number of greenhouse whitefly adults parasitized on the tomato (mean value per cup): 53
Greenhouse whiteflies; 28 days elapsed after setting, 0.16 mg/cm²
  number of greenhouse whitefly adults parasitized on the tomato (mean value per cup): 18
Greenhouse whiteflies; 35 days elapsed after setting, 0.16 mg/cm²
  number of greenhouse whitefly adults parasitized on the tomato (mean value per cup): 12
Greenhouse whiteflies; 42 days elapsed after setting, 0.16 mg/cm²
  number of greenhouse whitefly adults parasitized on the tomato (mean value per cup): 5
Thrips palmi; 0 days elapsed after setting, blue polyethylene sheet 15 cm x 15 cm
  number of Thrips palmi adults parasitized on the cucumbers: 3
Thrips palmi; 7 days elapsed after setting, blue polyethylene sheet
  number of Thrips palmi adults parasitized on the cucumbers: 4
Thrips palmi; 14 days elapsed after setting, blue polyethylene sheet
  number of Thrips palmi adults parasitized on the cucumbers: 3
Thrips palmi; 21 days elapsed after setting, blue polyethylene sheet
  number of Thrips palmi adults parasitized on the cucumbers: 2
Sweetpotato whitefly [3]
  Hatching inhibitory rate (%): 98.2%
Sweetpotato whiteflies [4]; 0 days elapsed after setting
  number of sweetpotato whitefly adults (pest-controlling effect): 53
Sweetpotato whiteflies [4]; 7 days elapsed after setting
  number of sweetpotato whitefly adults (pest-controlling effect): 40
Sweetpotato whiteflies [4]; 14 days elapsed after setting
  number of sweetpotato whitefly adults (pest-controlling effect): 35
Sweetpotato whiteflies [4]; 18 days elapsed after setting
  number of sweetpotato whitefly adults (pest-controlling effect): 20
Sweetpotato whiteflies [4]; 29 days elapsed after setting
  number of sweetpotato whitefly adults (pest-controlling effect): 10
Sweetpotato whiteflies [4]; 35 days elapsed after setting
  number of sweetpotato whitefly adults (pest-controlling effect): 1
